Experiments:
cellulose synthase = molecular target: T1, cellulose synthase (Novacetimonas hansenii, UniProt Q59167); assay: Inhibitory concentration IC50 against cellulose synthase; format: biochemical, acetic acid bacteria; settings: cellulose synthase (B-3) 1.5 U/mL
T1 construct: FLAG; made in house; host or cells: Escherichia coli SURE, as in Preparation 1
Procedure: Hyaluronan synthase aqueous solution (B-1) obtained in Preparation 1 was dissolved to a concentration of 1.5 U/mL in 940 μL of aqueous solution 1 (50 mM phosphate buffer (pH of 7.5, 25° C.) containing 5 mM magnesium chloride and 0.05 mM sodium uridine diphosphate) in a 1.5 mL-tube. The tube was allowed to stand at 40° C. for 20 minutes in a constant temperature water bath. To the tube was added 50 μL of temperature-adjusted (40° C.) substrate solution [1-1] (a solution obtained by dissolving uridine diphosphate-glucuronic acid sodium salt and uridine diphosphate-N-acetylglucosamine both to a concentration of 20 mM in buffer solution B (50 mM phosphate buffer, pH of 7.5, 25° C.)). Thereby, enzyme reaction solution (I-1) was obtained. […] The supernatant (80 μL) was analyzed by HPLC under the following conditions, and the peak areas of hyaluronan were recorded. […]
The inhibitory concentration IC50 was measured in a similar manner as in “Measurement of the inhibitory concentration IC50 against hyaluronan synthase”, except that “cellulose synthase aqueous solution (B-3) obtained in Preparation 12” was used in place of “hyaluronan synthase aqueous solution (B-1) obtained in Preparation 1”, “substrate solution [1-3] […]
The inhibitory concentration IC50 was also determined in a similar manner, except that the amount of cellulose synthase aqueous solution (B-3) was changed from 1.5 U/mL to 45 U/mL. […]

[1] = test system: nucleoside diphosphate kinase; assay: Michaelis constant Km of uridine triphosphate synthesis using; format: biochemical, rat; settings: uridine diphosphate as substrate, adenosine triphosphate as phosphate donor, 30° C., Hanes-Woolf plot
Procedure: The Michaelis constant Km can be determined through determination of the dependence of the initial enzyme reaction velocity on the substrate concentration in accordance with the method reported by Agarwal et al. (described in Methods of Enzymology, 1978, Vol. 51, pp. 483-491). (D4-1) in a purified form is used for the measurement of the Michaelis constant Km. The inhibitory concentration IC50 is determined by the method described above. […]
(D4-1-2) obtained in Preparation 8 was dissolved in 890 μL of aqueous solution 7 (50 mM phosphate buffer (pH of 7.5, 25° C.) containing 5 mM magnesium chloride and 100 mM adenosine triphosphate (available from Sigma-Aldrich Corporation)) in a 1.5 mL-tube. […] The supernatant (80 μL) was analyzed by HPLC, and the peak areas of uridine triphosphate were recorded.
Solutions were prepared by changing the molar concentration of sodium uridine diphosphate in substrate solution [2-1] to 5 mM (substrate solution [2-2]), 2 mM (substrate solution [2-3]), 1 mM (substrate solution [2-4]), and 0.3 mM (substrate solution [2-5]). […] The peak areas of uridine triphosphate were recorded for enzyme reaction solutions (IV-2-2) to (IV-2-5) in a similar manner for enzyme reaction solution (IV-2-1). […]

T1 sequence (Q59167 whole entry): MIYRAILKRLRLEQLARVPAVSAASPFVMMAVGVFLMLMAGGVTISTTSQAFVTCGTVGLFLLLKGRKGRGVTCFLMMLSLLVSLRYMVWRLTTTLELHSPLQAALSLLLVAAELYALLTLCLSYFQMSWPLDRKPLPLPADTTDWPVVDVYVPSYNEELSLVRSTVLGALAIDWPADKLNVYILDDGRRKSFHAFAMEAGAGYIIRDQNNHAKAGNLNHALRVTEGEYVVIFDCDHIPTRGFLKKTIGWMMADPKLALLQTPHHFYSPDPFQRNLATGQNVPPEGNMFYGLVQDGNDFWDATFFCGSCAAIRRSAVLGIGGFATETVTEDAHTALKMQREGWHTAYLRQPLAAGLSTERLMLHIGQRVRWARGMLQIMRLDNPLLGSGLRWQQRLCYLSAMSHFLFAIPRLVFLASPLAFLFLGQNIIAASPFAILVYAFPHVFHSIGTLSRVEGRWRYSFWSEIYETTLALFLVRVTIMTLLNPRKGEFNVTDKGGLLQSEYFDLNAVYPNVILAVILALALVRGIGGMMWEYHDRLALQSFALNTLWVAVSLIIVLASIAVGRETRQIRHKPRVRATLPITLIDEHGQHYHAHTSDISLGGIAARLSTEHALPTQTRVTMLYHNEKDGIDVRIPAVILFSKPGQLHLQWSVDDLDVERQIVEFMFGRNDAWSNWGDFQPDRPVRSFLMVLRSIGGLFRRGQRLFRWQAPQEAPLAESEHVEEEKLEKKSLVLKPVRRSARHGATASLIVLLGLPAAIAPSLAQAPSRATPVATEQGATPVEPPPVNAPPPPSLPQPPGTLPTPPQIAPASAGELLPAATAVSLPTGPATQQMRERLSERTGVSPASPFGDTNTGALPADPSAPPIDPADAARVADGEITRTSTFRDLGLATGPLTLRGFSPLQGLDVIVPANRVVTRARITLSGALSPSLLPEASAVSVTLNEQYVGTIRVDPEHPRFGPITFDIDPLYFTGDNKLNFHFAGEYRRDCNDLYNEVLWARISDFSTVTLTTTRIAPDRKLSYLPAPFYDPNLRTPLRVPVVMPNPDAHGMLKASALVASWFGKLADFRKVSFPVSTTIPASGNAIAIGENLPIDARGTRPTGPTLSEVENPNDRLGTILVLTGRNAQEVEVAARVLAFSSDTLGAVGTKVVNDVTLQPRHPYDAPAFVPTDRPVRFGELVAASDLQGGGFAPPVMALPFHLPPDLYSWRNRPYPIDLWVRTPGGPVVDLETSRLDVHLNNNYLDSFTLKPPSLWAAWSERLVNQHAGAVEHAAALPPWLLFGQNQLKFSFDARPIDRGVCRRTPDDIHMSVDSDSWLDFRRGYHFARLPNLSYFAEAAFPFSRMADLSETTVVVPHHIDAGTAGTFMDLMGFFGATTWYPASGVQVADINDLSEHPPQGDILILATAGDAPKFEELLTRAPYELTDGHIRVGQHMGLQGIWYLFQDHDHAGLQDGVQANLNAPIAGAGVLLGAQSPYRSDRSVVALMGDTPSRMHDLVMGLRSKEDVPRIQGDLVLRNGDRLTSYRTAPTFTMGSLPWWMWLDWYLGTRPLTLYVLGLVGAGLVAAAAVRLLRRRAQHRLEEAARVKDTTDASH

Compound: O=c1ccn([C@@H]2O[C@H](COP(=O)(O)OP(=O)(O)O)[C@@H](O)[C@H]2O)c(=O)[nH]1 [uridine diphosphate]
- IC50 (cellulose synthase): 100 µM
- Km [1]: 250 µM

— US9670514B2, “Method for producing polysaccharide” (SANYO CHEMICAL INDUSTRIES, LTD., priority 2011, dated 2017)
